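In this assay, cells in 96-well plates receive the compound at five concentrations for 48 hours. Endpoints are linearly interpolated between the surrounding concentrations. GI50 marks 50% less growth.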 The source made the active and inactive calls. Rule as the data show it: active = GI50 up to about 1.1 µM and inactive = higher.
Columns and labels:
Test in all cases: NCI tumour cell line growth inhibition, 48 h
COLO 205 = tested on: COLO 205
A498 = tested on: A498
SNB-19 = tested on: SNB-19
HCT-116 = tested on: HCT-116
NCI-H460 = tested on: NCI-H460
OVCAR-4 = tested on: OVCAR-4
SNB-75 = tested on: SNB-75
A549 = tested on: A549
RPMI-8226 = tested on: RPMI-8226
UACC-62 = tested on: UACC-62
SK-MEL-28 = tested on: SK-MEL-28
MOLT-4 = tested on: MOLT-4
TK-10 = tested on: TK-10
SK-OV-3 = tested on: SK-OV-3
HCC 2998 = tested on: HCC 2998
SF-268 = tested on: SF-268
Malme-3M = tested on: Malme-3M
MDA-MB-231 = tested on: MDA-MB-231
NCI/ADR-RES = tested on: NCI/ADR-RES
Hs-578T = tested on: Hs-578T

Measured: GI50

CCCCCCC(=O)C/C(CCC(=O)N(Cc1ccccc1)Cc1ccccc1)=N\Nc1ccc([N+](=O)[O-])cc1[N+](=O)[O-]
inactive: COLO 205 41.1 µM | A498 62.8 µM | SNB-19 > 100 µM | HCT-116 35.1 µM | NCI-H460 71.1 µM | OVCAR-4 40.1 µM | SNB-75 39.1 µM | A549 46.1 µM | RPMI-8226 31.9 µM | UACC-62 16.2 µM | SK-MEL-28 99.3 µM | MOLT-4 > 10 µM | TK-10 > 100 µM | SK-OV-3 > 100 µM | HCC 2998 73.6 µM | SF-268 39.1 µM | Malme-3M > 100 µM

COP(=O)(OC)OCN(C)CC/C=C(\C)CC/C=C(\C)CCC=C(C)C
inactive: COLO 205 16.9 µM | A498 > 100 µM | SNB-19 10.4 µM | HCT-116 11.8 µM | NCI-H460 11.7 µM | OVCAR-4 31.3 µM | SNB-75 14.8 µM | A549 16.9 µM | MDA-MB-231 20.2 µM | RPMI-8226 10.6 µM | SK-MEL-28 17.3 µM | MOLT-4 13.6 µM | TK-10 10.3 µM | NCI/ADR-RES 13 µM | SK-OV-3 28.5 µM | HCC 2998 11.6 µM | SF-268 16.4 µM | Malme-3M 14.9 µM

CN/N=C(\C)C(CN1CCCCC1)C(C1=C(O)c2ccccc2OC1)c1ccccc1 (configuration not stated)
inactive: COLO 205 38.4 µM | A498 > 10 µM | SNB-19 > 100 µM | HCT-116 > 100 µM | NCI-H460 > 100 µM | OVCAR-4 > 100 µM | SNB-75 > 100 µM | A549 > 100 µM | RPMI-8226 44.3 µM | UACC-62 48 µM | SK-MEL-28 > 100 µM | MOLT-4 39.4 µM | TK-10 > 100 µM | SK-OV-3 > 100 µM | HCC 2998 > 100 µM | SF-268 > 100 µM | Malme-3M 91.8 µM

COc1cc(C(c2cc3c(cc2O)OCO3)N2CCCC2)cc(OC)c1OC (configuration not stated)
inactive: COLO 205 11.7 µM | A498 21.4 µM | SNB-19 19.3 µM | HCT-116 15.4 µM | OVCAR-4 17 µM | SNB-75 16.2 µM | A549 20.4 µM | MDA-MB-231 15.9 µM | RPMI-8226 11.6 µM | UACC-62 15.8 µM | SK-MEL-28 23.3 µM | MOLT-4 3.96 µM | TK-10 20.2 µM | NCI/ADR-RES 17.3 µM | SK-OV-3 30.3 µM | HCC 2998 28.5 µM | Malme-3M 6.73 µM

N#Cc1c(-c2ccco2)cc(-c2ccccc2)nc1O
inactive: COLO 205 > 100 µM | A498 > 100 µM | SNB-19 > 100 µM | HCT-116 > 100 µM | NCI-H460 > 100 µM | OVCAR-4 63.4 µM | SNB-75 56.4 µM | A549 > 100 µM | RPMI-8226 > 100 µM | UACC-62 > 100 µM | SK-MEL-28 > 100 µM | MOLT-4 > 100 µM | TK-10 > 100 µM | SK-OV-3 > 100 µM | HCC 2998 > 100 µM | SF-268 > 100 µM | Malme-3M > 100 µM

COc1ccccc1C1c2cc3c(cc2OC(N2CCOCC2)C1C)OCO3 (configuration not stated)
inactive: COLO 205 > 10 µM | Hs-578T 13.2 µM | SNB-19 14 µM | HCT-116 12.4 µM | NCI-H460 16.6 µM | A549 17.3 µM | RPMI-8226 16.2 µM | UACC-62 14.7 µM | SK-MEL-28 15.6 µM | MOLT-4 17.1 µM | TK-10 22 µM | NCI/ADR-RES 22.9 µM | SF-268 16.1 µM

Cc1cc(Cl)cc2c1NC(=O)/C2=N\Nc1ccccc1[N+](=O)[O-]
inactive: COLO 205 > 100 µM | Hs-578T 35.3 µM | A498 > 100 µM | SNB-19 > 100 µM | HCT-116 > 100 µM | NCI-H460 > 100 µM | OVCAR-4 > 100 µM | SNB-75 > 100 µM | A549 > 100 µM | MDA-MB-231 66.8 µM | RPMI-8226 > 100 µM | UACC-62 > 100 µM | SK-MEL-28 > 100 µM | MOLT-4 74.3 µM | TK-10 > 100 µM | SK-OV-3 > 100 µM | HCC 2998 > 100 µM | SF-268 > 100 µM

COC(=O)C1=C(C(=O)OC)SC(=CC#CC=C2SC(C(=O)OC)=C(C(=O)OC)S2)S1
inactive: COLO 205 11.7 µM | A498 19.4 µM | SNB-19 6.41 µM | HCT-116 11.7 µM | NCI-H460 21 µM | OVCAR-4 9.33 µM | SNB-75 7 µM | A549 25.5 µM | RPMI-8226 > 100 µM | UACC-62 8.26 µM | SK-MEL-28 18.4 µM | MOLT-4 > 100 µM | TK-10 9.06 µM | SK-OV-3 16.5 µM | HCC 2998 10.8 µM | SF-268 > 32.4 µM | Malme-3M 15.7 µM

C=C(C)C1CCC2(CO)C(O)CC3(C)C(CCC4C5(C)CCC(O)C(C)(C)C5CCC43C)C12 (configuration not stated)
inactive: Hs-578T 7.76 µM | A498 10.9 µM | SNB-19 5.36 µM | HCT-116 22.4 µM | NCI-H460 11.8 µM | SNB-75 3.7 µM | A549 10.6 µM | MDA-MB-231 12.7 µM | SK-MEL-28 10.4 µM | MOLT-4 27.4 µM | TK-10 16.1 µM | NCI/ADR-RES 15.3 µM | SF-268 8.36 µM | Malme-3M 13.6 µM

CN1C(=O)n2c(nc3ccccc32)C(N=[N+]=[N-])(N=[N+]=[N-])C1=O (configuration not stated)
inactive: COLO 205 > 100 µM | A498 > 100 µM | SNB-19 > 100 µM | HCT-116 > 100 µM | NCI-H460 > 100 µM | OVCAR-4 > 100 µM | SNB-75 57.3 µM | A549 > 100 µM | RPMI-8226 > 100 µM | UACC-62 > 100 µM | SK-MEL-28 > 100 µM | MOLT-4 > 100 µM | TK-10 > 100 µM | SK-OV-3 > 100 µM | HCC 2998 > 100 µM | SF-268 > 100 µM | Malme-3M > 100 µM

CCC1(c2ccc(OC)c(OC)c2)CCN(S(=O)(=O)c2ccc(C)cc2)C1 (configuration not stated)
inactive: COLO 205 > 100 µM | SNB-19 > 100 µM | HCT-116 57.4 µM | NCI-H460 64 µM | OVCAR-4 39.4 µM | SNB-75 > 100 µM | A549 62.8 µM | MDA-MB-231 > 100 µM | UACC-62 > 100 µM | SK-MEL-28 > 10 µM | MOLT-4 19.2 µM | TK-10 > 100 µM | NCI/ADR-RES 72.8 µM | SK-OV-3 > 100 µM | HCC 2998 > 100 µM | SF-268 > 100 µM

NC(Cc1ccccc1)P(=O)(O)O (configuration not stated)
inactive: Hs-578T > 100 µM | A498 > 100 µM | SNB-19 > 100 µM | HCT-116 > 100 µM | NCI-H460 > 100 µM | OVCAR-4 > 100 µM | A549 > 100 µM | MDA-MB-231 > 100 µM | RPMI-8226 > 100 µM | UACC-62 > 100 µM | SK-MEL-28 > 100 µM | MOLT-4 > 100 µM | TK-10 > 100 µM | NCI/ADR-RES > 100 µM | SF-268 > 100 µM | Malme-3M > 100 µM

— ChEMBL document CHEMBL1201862, “PubChem BioAssay data set” (2004)
